Assay results published in paper PMC5915154, “Aloe-emodin as drug candidate for cancer therapy” (Oncotarget, 2018).

How the values were obtained:
[1] = test system: drug-sensitive CCRF-CEM leukemia cells; test: Resazurin reduction assay, CCRF-CEM; type: cell-based; conditions: Homo sapiens, 72 h
Excerpt: (§1) The cell lines used in the present work, their origins and maintenance conditions were previously reported. In brief, drug-sensitive CCRF-CEM and multidrug resistant P-glycoprotein-over-expressing CEM/ADR5000 leukemia cells, MDA-MB-231-pcDNA3 breast cancer cells and their transfectant subline MDA-MB-231-BCRP clone 23, HCT116 (p53^+/+) colon cancer cells and its knockout clone HCT116 (p53^-/-), U87.MG glioblastoma multiform cells and their transfectant subline U87.MGΔEGFR as well as HEK293 human embryonic kidney cells transfected with or without a cDNA for ABCB5 were used. The human peripheral mononuclear cells (PMNC) were isolated from fresh blood samples of a healthy donor by using Histopaque® (Sigma-Aldrich, Taufkirchen, Germany).
(§2) Resazurin reduction assay was conducted to test the cytotoxicity of the compounds. This assay is based on the reduction of resazurin to resorufin by viable cells. […] Briefly, aliquots of 0.5×10^4 adherent cells which were allowed to attach overnight and 1×10^4 suspension cells per well were seeded in 96-well-plates with or without the addition of varying concentrations of the test substance to get a total volume of 200 μL/well. After 72 h incubation and addition of resazurin (Sigma-Aldrich) for 4 h, staining was measured by an Infinite M2000 ProTM plate reader (Tecan, Germany) using an excitation wavelength of 544 nm and an emission wavelength of 590 nm. Each assay was independently performed for at least three times, with six parallel replicates each. The protocol has been recently reported. Fifty percent inhibition concentrations (IC50) represent the drug concentrations required to inhibit 50% of cell proliferation, which were fitted with nonlinear regression using GraphPad® Prism7.

[2] = test system: multidrug-resistant P-glycoprotein-overexpressing CEM/ADR5000 leukemia cells; test: Resazurin reduction assay, CEM/ADR5000; type: cell-based, human; conditions: for IC50: Homo sapiens, CEM/ADR5000, resazurin assay, 72 h
Excerpt: as §1, §2

CCRF-CEM cells [3] = test: Cell cycle analysis (PI, flow cytometry); type: cell-based, human; conditions: 0.01 μM and 0.1 μM, 24 h
Experimental: The cells were collected, washed in PBS and fixed with ice-cold 96% ethanol. After washing the cells with PBS again, the cells were dissolved in PBS and stained with propidium iodide (PI, Sigma-Aldrich) at a final concentration of 50 μg/mL for 15 min in the dark. Cell cycle analyses were performed using a BD Accuri™ C6 Flow cytometer (Becton-Dickinson, Heidelberg, Germany) at 488 nm excitation wavelength, and emission was measured by a 610/20 nm band pass filter. All experiments were performed at least in triplicates. The protocol has been recently reported by us.

CCRF-CEM cells [4] = test: Mitochondrial membrane potential (JC-1, flow cytometry); type: cell-based, human; conditions: CCRF-CEM, 0.01, 0.1, and 1 μM, 48 h
Excerpt: The JC-1 Mitochondrial Membrane Potential Assay Kit (Cayman Chemical, Ann Arbor, MI, USA) was applied for the detection of MMP by flow cytometry according to the manufacturer’s instructions. The cationic dye, 5, 5’, 6, 6’- tetrachloro- 1, 1’, 3, 3’- tetraethylbenzimidazolylcarbocyanine iodide (JC-1) enters the mitochondria and changes its fluorescent properties based on the aggregation of the probe. In healthy cells having high MMP, JC-1 forms complexes known as J-aggregates with intense red fluorescence. On the other hand, in cells with low MMP, JC-1 remains in its monomeric form showing green fluorescence. […] A LSR-Fortessa FACS analyzer (Becton–Dickinson) was used to detect the J-aggregate form of JC-1 with an excitation wavelength of 535 ± 20 nm and an emission wavelength of 590 ± 20 nm as well as the monomeric form of JC-1 at excitation and emission wavelengths of 485 and 535 nm, respectively. The results were analyzed by the FlowJo software (Celeza, Olten, Switzerland). 2×10^4 cells were counted for each experiment which were repeated in triplicate.

CCRF-CEM cells [5] = test: Annexin V/PI detection of apoptosis and necrosis; type: cell-based, human; conditions: 0.1 μM, 72 h
Excerpt: A commercial annexin V/PI detection apoptosis kit was used to detect early apoptosis and necrosis according to the manufacturer’s instructions (Life Technologies, Carlsbad, CA, USA). Annexin V is a calcium-dependent phospholipid-binding protein, which binds to phosphatidylserine (PS). PS is predominantly located at the inner side of the plasma membrane under normal conditions and moves to outer surface of the membrane upon the onset of early apoptosis. This can be detected FITC-labeled annexin V. PI is a marker of late apoptosis and necrosis. We treated aliquots of 1×10^6 CCRF-CEM cells with 0.5-, 1-, 2- and 4-fold IC50 of Aloe-emodin for 48, 72 or 96 h, respectively. After washing the cells with PBS, they were stained with annexin V/FITC at room temperature for 10-15 min. Subsequently, cells were washed again and stained with PI in the dark. Then, the results were analyzed by a BD Accuri™ C6 flow cytometer at excitation wavelength 488 nm and emission wavelength 530 nm to record annexin V/FITC signals. The fluorescence of PI was detected at 488 nm excitation and was measured by a 610/20 nm band pass filter. At least three independent experiments were performed..

SMILES	IC50 [1] [µM]	IC50 [2] [µM]	degree of resistance (IC50 CEM/ADR5000 divided by IC50 CCRF-CEM) ([2]; collateral sensitivity of CEM/ADR5000) [fold]	cell cycle arrest (CCRF-CEM cells [3])	MMP depolarization (JC-1 fluorescence) (CCRF-CEM cells [4])	apoptotic or necrotic cell death (CCRF-CEM cells [5])
O=C(O)c1cc(O)c2c(c1)C(=O)c1cccc(O)c1C2=O [rhein]	34.4	46.9	–	–	–	–
COc1cc(O)c2c(c1)C(=O)c1cc(C)cc(O)c1C2=O [physcion]	124	74.8	0.61	–	–	–
Cc1cc(O)c2c(c1)C(=O)c1cc(O)cc(O)c1C2=O [emodin, Emodin]	35.6	35.3	–	–	–	–
COc1cccc2c1C(=O)c1c(O)c3c(c(O)c1C2=O)C[C@@](O)(C(=O)CO)C[C@@H]3O[C@H]1C[C@H](N)[C@H](O)[C@H](C)O1 [doxorubicin, Doxorubicin, reference compound]	0.0007	11	–	induced both S- and G2/M-arrest	shift from red to green fluorescence	late apoptosis and early necrosis
